Results from paper PMC3914206.

Columns and labels:
panel of 442 kinases [1] = target: T1, panel of 442 kinases (Homo sapiens, UniProt Q9NWZ3); assay type: binding; settings: Compound Concentration 10 µM
T1 construct: purchased KINOMEscan
T1 sequence (Q9NWZ3 1-460): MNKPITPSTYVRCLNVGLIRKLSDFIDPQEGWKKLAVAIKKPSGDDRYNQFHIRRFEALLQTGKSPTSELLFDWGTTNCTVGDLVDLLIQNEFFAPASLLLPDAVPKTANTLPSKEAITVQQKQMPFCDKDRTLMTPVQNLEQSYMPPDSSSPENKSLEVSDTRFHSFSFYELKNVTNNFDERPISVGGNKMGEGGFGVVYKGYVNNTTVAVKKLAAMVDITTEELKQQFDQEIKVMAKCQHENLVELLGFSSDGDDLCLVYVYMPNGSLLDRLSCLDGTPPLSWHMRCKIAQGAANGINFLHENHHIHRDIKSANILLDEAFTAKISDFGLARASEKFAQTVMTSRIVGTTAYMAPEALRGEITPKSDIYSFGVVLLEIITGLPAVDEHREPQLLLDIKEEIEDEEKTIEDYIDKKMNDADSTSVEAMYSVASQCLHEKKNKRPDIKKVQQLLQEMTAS
From the text: (§1) We assessed the selectivity of members of this scaffold using the KINOMEscan methodology across a near comprehensive panel of 442 kinases [[18,27]].

panel of 442 kinases [2] = target: T2, panel of 442 kinases (Homo sapiens, UniProt Q9Y4K4); assay type: binding; settings: Compound Concentration 10 µM
T2 construct: purchased KINOMEscan
T2 sequence (Q9Y4K4 whole entry): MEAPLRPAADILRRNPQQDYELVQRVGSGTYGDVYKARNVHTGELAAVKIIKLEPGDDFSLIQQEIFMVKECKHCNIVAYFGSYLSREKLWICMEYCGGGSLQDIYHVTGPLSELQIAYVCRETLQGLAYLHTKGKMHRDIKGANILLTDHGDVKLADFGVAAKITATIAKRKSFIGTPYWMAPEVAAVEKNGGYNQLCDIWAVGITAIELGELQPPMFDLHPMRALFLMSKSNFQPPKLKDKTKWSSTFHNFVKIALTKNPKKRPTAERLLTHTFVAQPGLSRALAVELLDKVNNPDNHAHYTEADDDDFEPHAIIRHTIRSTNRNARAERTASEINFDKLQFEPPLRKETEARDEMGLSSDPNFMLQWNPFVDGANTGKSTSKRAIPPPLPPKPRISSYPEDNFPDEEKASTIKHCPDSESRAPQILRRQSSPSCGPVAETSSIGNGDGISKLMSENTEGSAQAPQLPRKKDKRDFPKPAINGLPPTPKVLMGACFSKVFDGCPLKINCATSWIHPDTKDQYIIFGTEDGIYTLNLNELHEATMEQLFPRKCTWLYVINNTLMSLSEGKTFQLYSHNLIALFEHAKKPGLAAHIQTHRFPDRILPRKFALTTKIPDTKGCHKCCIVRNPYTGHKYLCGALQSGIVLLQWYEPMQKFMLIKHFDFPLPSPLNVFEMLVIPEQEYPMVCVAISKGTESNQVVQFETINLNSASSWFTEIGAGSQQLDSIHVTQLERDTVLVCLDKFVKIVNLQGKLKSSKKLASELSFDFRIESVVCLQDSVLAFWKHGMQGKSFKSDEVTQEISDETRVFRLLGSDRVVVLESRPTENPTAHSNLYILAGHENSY
From the text: as §1

In the case of `COc1cc(C(=O)N2CCC(N3CCN(C)CC3)CC2)ccc1Nc1ncc2c(n1)N(C)c1ccccc1C(=O)N2C` [15 (LRRK2-IN-1)], the “KINOMEscan: IRAK4” value (panel of 442 kinases [1]) is reported as 83 and the “KINOMEscan: MAP4K5” value (panel of 442 kinases [2]) is reported as 100.

`COc1cc(C(=O)N2CCC(N3CCN(C)CC3)CC2)ccc1Nc1ncc2c(n1)N1CCc3cccc(c31)C(=O)N2C` [Compound 24] was tested, and the “KINOMEscan: MAP4K5” value (panel of 442 kinases [2]) was 72.

With `COc1cc(C(=O)N2CCC(N3CCN(C)CC3)CC2)ccc1Nc1ncc2c(n1)N(C1CCCC1)c1ccccc1C(=O)N2C` [Compound 25, 11-cyclopentyl-2-((2-methoxy-4-(4-(4-methylpiperazin-1-yl)piperidine-1-carbonyl)phenyl)amino)-5-methyl-5H-benzo[e]pyrimido[5,4-b][1,4]diazepin-6(11H)-one] the “KINOMEscan: IRAK4” value (panel of 442 kinases [1]) was 100 and the “KINOMEscan: MAP4K5” value (panel of 442 kinases [2]) was 96.

With `CCOc1cc(C(=O)N2CCC(N3CCN(C)CC3)CC2)ccc1Nc1ncc2c(n1)N(C1CCCC1)c1ccccc1C(=O)N2C` [Compound 26] the “KINOMEscan: IRAK4” value (panel of 442 kinases [1]) was 100 and the “KINOMEscan: MAP4K5” value (panel of 442 kinases [2]) was 95.
